These results are taken from PMC9356076, “An Integrated Pharmacological Counselling Approach to Guide Decision-Making in the Treatment with CDK4/6 Inhibitors for Metastatic Breast Cancer” (Frontiers in Pharmacology, 2022).

The subject of data set [1] is breast cancer resistance protein (BCRP). The settings on record: background statement, no reference given; cited from earlier work.
The conditions of data set [2]: cited from earlier work.
Another data set relates to P-glycoprotein (P-gp). Particulars: background statement, no reference given; cited from earlier work.
Data set [3] has as its system HR-positive/HER2-negative MBC patients. Nature of the data set: Adverse drug reactions in treated patients, graded by CTCAE Version 5.0. Format: in vivo, human. Particulars: palbociclib 100 mg/day. From the text: (§1) Our counselling service was already available for other KI used in oncology as imatinib, sorafenib, regorafenib, sunitinib, lenvatinib, and three PARP inhibitors: olaparib, niraparib, and rucaparib. Written informed consent was obtained for pharmacogenetic and TDM analyses and the publication of the here presented reports. Any potentially identifying information was omitted. Data concerning age, disease, stage, and molecular profiling, treatment regimen and setting, drug dose, adverse drug reactions, and coadministered treatments were retrieved from the electronic medical record upon patients’ reporting by the prescribing medical oncologist. Toxicities were retrospectively collected through clinical records revision and graded according to Common Terminology Criteria for Adverse Events (CTCAE) Version 5.0.

The nature of data set [4]: Therapeutic drug monitoring: steady-state plasma concentration in patients by LC-MS/MS.
Procedure: Plasma was obtained by centrifugation at 2,450 g for 10 min at 4°C of whole blood EDTA tubes and stored at −80°C until analysis. Patients’ samples were analyzed with a newly developed LC-MS/MS method as previously reported ([Posocco et al., 2020]). Drug concentration was usually evaluated at specific time points, which allowed the evaluation of Cmin or Cmax at steady state. […] Last administration (self-reported) and sampling times were also recorded. According to the literature ([Verheijen et al., 2017]), the average exposure of the approved efficacious dose was used as a proxy of target Cmin and will be referred to as “target Cmin” in this article.
Descriptive statistics were used to present and analyze the TDM data. The mean population Cmin value reported in the literature for patients treated with the standard dose was used to evaluate the TDM target, and the ±20% intervals were calculated. This interval was based on acceptable variability of analytical data according to incurred sample reanalysis criteria ([FDA, 2018]; [EMA, 2022]). Patients who fell outside this range were considered to be potentially under or overexposed to the drugs.
A further data set is described as follows: clinical. Particulars: human.
Data set [5] deals with HR-positive/HER2-negative MBC patients. Description: Patient's clinical outcome of CDKi treatment for metastatic breast cancer. In kind it is in vivo, human.
Source text: as §1

For the next data set, the system named is UGT. Particulars: background statement, no reference given; cited from earlier work.

Regarding `CCN1CCN(Cc2ccc(Nc3ncc(F)c(-c4cc(F)c5nc(C)n(C(C)C)c5c4)n3)nc2)CC1` [abemaciclib], the “substrate of / transport by BCRP” value in data set [1] is recorded as “substrates”. Further, in data set [2] (abemaciclib, MONARCH 3 patients, 132 mg/twice day, ref US Food and Drug Administration, 2017b), the “proposed target Cmin” value was 181 ng/mL. Further, in the data set with P-glycoprotein (P-gp), the “substrate of the efflux transporter P-gp” value was “substrates”.

Turning to `N#Cc1ccc(C(c2ccc(C#N)cc2)n2cncn2)cc1` [letrozole], the “proposed Cmin target value” in data set [2] (letrozole, dedicated exposure-efficacy studies, ref FDA, 2021a) was 85.6 ng/mL.

Regarding `CC(=O)c1c(C)c2cnc(Nc3ccc(N4CCNCC4)cn3)nc2n(C2CCCC2)c1=O` [palbociclib], the “neutropenia grade after dose reduction” value was “grade 4” in data set [3] (Case II) and “grade 3” in data set [3] (Case V). For the same compound, the “Cmin (minimum plasma concentration)” value in data set [4] (Case I, palbociclib 75 mg/day + fulvestrant, steady state, 24 h after last intake) was 27.3 ng/ml (palbociclib 75 mg/day). The compound also came in with a Cmin in data set [4] (Case II, after dose reduction to palbociclib 100 mg/day) of 62.3 ng/mL. Moreover, the concentration at 24 h in data set [4] (human, plasma, oral, 100 mg/day) was 62.3 ng/mL; in “clinical” (plasma, oral), 49 to 73 ng/mL. In addition, the “Patient's clinical outcome” value was “systemic PD” in data set [5] (Case I, palbociclib 75 mg/day + fulvestrant, II line) and “Palbociclib treatment failure due to disease progression” in data set [5] (Case I, palbociclib 75 mg/day + fulvestrant, II line, listed as Palbociclib).

As for `CN(C)C(=O)c1cc2cnc(Nc3ccc(N4CCNCC4)cn3)nc2n1C1CCCC1` [ribociclib], in the data set with UGT, the “glucuronidation reaction by UGT” value is reported as “undergo a glucuronidation reaction”. Besides, the “substrate of / transport by BCRP” value in data set [1] is recorded as “no noticeable transport”. In addition, the “reported mean Cmin (target population Cmin)” value in data set [2] (ribociclib standard dose 600 mg/day, ref FDA, 2021b) is 732 ng/mL. Also, the “mean steady-state population Cmax” value in data set [2] (ribociclib) is listed as 2,237 ng/ml. This compound also showed a concentration at 24 h in “clinical” (in vivo) of 586 to 878 ng/mL. Besides, the “substrate of the efflux transporter P-gp” value in the data set with P-glycoprotein (P-gp) was “substrate”. Moreover, the “Patient's clinical outcome” value in data set [5] (Case III, ribociclib 600 mg/day reduced to 400 mg and then 200 mg, I line) is on record as “disease progression”; in data set [5] (Case III, ribociclib 600 mg/day reduced to 400 mg and then 200 mg, I line, listed as Ribociclib) it was “The dose of ribociclib was reduced after more than 1 year of intermittent treatment due to toxicity. Ribociclib treatment ultimately failed”.
